Measurements published in PubChem BioAssay AID1996.
Values after ≈ are worked out from the molar mass of the structure shown.

details: buffer; pH 7.4; 200.0 µM

Structure (SMILES) | solubility kinetic [µg/mL]
CCOc1ccc(N2C(=O)NC(=O)/C(=C\c3ccccc3[N+](=O)[O-])C2=O)cc1 | > 57.2
O=C(OC(C(=O)NC1CCCCC1)c1ccccc1F)c1ccco1 (configuration not stated) | 41.6 (≈ 120 µM)
N=C1SC(CC(=O)Nc2ccc([N+](=O)[O-])cc2)C(=O)N1c1ccccc1 (configuration not stated) | 1 (≈ 2.7 µM)
COc1ccccc1NS(=O)(=O)c1cc(NC(=O)c2ccccc2[N+](=O)[O-])ccc1N1CCOCC1 | 4.4 (≈ 8.58 µM)
O=C(/C=C/c1ccccc1)Oc1cccc2cccnc12 | 20.2 (≈ 73.4 µM)
Clc1cccc(C2CCN(Cc3nc(CC4CC4)no3)C2)c1 (configuration not stated) | 12.3 (≈ 38.7 µM)
O=C(Nc1scc(-c2ccccc2)c1C(=O)O)c1ccccc1F | > 51.2
CCOC(=O)c1c(C)[nH]c(C(=O)COC(=O)c2ccc([N+](=O)[O-])o2)c1C | 4.4 (≈ 12.1 µM)
CCC12CN3CCN(CC(C3)/C1=N\NC(=O)c1ccc(Cl)cc1)C2 | > 52
Cc1cc(N)ccc1-c1cc2ccccc2oc1=O | 25.8 (≈ 103 µM)
Cc1nc2ccccc2c2ncccc12 | 22.4 (≈ 115 µM)
COC(=O)Cc1c(O)ccn(C2CC2)c1=O | > 33.5
C/C(=N\O)C(C)(C)Nc1ccc(Br)cc1 | > 40.7
CCc1c(C(=O)Nc2cc(C(=O)OC)ccc2C)csc1C | 1 (≈ 3.15 µM)
CCCc1nc(SCC(=O)c2ccc(OC)cc2)c2ccccc2n1 | 1.4 (≈ 3.97 µM)
CN1CCN(C(=O)/C=C/c2c(F)cccc2Cl)CC1 | > 42.4
Cc1ccc(C)c(NC(=O)C2CC3CCC2C3)c1 (configuration not stated) | 10.6 (≈ 43.6 µM)
O=C(COC(=O)COc1cccc(F)c1)NCC1CCCCC1 | > 48.5
O=S(=O)(NCc1ccc(Cl)cc1Cl)c1cccs1 | 40.6 (≈ 126 µM)
COc1ccc(CNC(=O)C(NC(C)=O)C(C)C)cc1OC (configuration not stated) | > 46.3
CC(Oc1ccc2c(-c3ccccc3)cc(=O)oc2c1)C(=O)NC(Cc1c[nH]c2ccccc12)C(=O)O (configuration not stated) | > 74.5
FC(F)(F)c1ccc(NCc2ccccn2)nc1 | > 38
COc1ccc(-c2cc(-c3ccco3)[nH]c(=O)c2C#N)cc1 | 5.3 (≈ 18.1 µM)
COC(=O)c1sc(=S)n(Cc2ccccc2)c1C | 7.1 (≈ 25.4 µM)

Structure (SMILES) | solubility kinetic [µg/mL]
COc1ccc(NC(=O)CN(C)CC(=O)N(CC(C)C)c2c(N)n(CC(C)C)c(=O)[nH]c2=O)cc1 | > 73.3
Cc1ccc(C)c(NC(=O)NCCN2CCCCC2)c1 | 35.6 (≈ 129 µM)
CC1CCCC(NC(=O)COC(=O)c2ccc([N+](=O)[O-])s2)C1C (configuration not stated) | 15.4 (≈ 45.2 µM)
CCN1C/C(=N\S(=O)(=O)/N=C2\CN(CC)C(=O)N2CC)N(CC)C1=O | > 55.9
CC(=O)c1cccc(NC(=O)C(CC(C)C)NC(=O)C2CCCCC2)c1 (configuration not stated) | 20.2 (≈ 56.3 µM)
Cc1cc(Cl)ccc1OC(C)C(=O)NCCCn1ccnc1 (configuration not stated) | > 48.3
COc1ccc2c(c1O)C13CCN(C)C(C2)C1CCC(=O)C3 (configuration not stated) | > 45.2
Cc1ccc(NC(=S)c2ccc3ccccc3n2)c(C)c1 | < 0.3
Cc1sc(N)nc1C12CC3CC(CC(C3)C1)C2 | 3.3 (≈ 13.3 µM)
CN1C2=C(C(=O)CC(C)(C)C2)C(c2cccs2)C2=C1CC(C)(C)CC2=O | 32.6 (≈ 88.2 µM)
COc1ccc(/C=C/c2nc(-c3ccccc3)cc(=O)[nH]2)cc1 | < 0.3
Cc1ccc(N(CN2C(=O)C3C4CCC(C4)C3C2=O)C(=O)c2ccco2)cc1 (configuration not stated) | 53.9 (≈ 142 µM)
O=C(Nc1ccc(Cl)cn1)c1ccc2[nH]c(=O)c(=O)[nH]c2c1 | 11.7 (≈ 36.9 µM)
CC1CC1C(=O)N(C)CC(=O)Nc1cccc(F)c1 (configuration not stated) | > 39.6
CCOc1ccccc1-n1c(C)cc(C=O)c1C | > 36.5
CCCCc1noc(-c2c(-c3ccccc3Cl)noc2C)n1 | 0.6 (≈ 1.89 µM)
Cc1cc(N2CCNCC2)nc2ccccc12 | 33.3 (≈ 146 µM)
O=C(CCCCC(=O)Nc1c(I)cc(I)c(C(=O)O)c1I)Nc1c(I)cc(I)c(C(=O)O)c1I | > 171
CCN(CC)c1c([N+](=O)[O-])c(=O)n(CC)c2ccccc12 | 32.4 (≈ 112 µM)
O=C(/C=C/c1ccc(F)cc1)NC(=S)NC1CCCCC1 | 0.5 (≈ 1.63 µM)
COC(=O)Nc1ccc(S(=O)(=O)N2CCCc3cccc(O)c32)cc1 | 2.1 (≈ 5.79 µM)
O=C(O)CN1C(=O)S/C(=C\c2ccc3c(c2)OCO3)C1=O | 41 (≈ 133 µM)
COc1ccc(NC(=O)c2ccc(NC(=O)COC(=O)c3cnc(C)cn3)cc2)cc1 | 9.1 (≈ 21.6 µM)
Cc1ccc(NS(=O)(=O)c2cccc3nsnc23)cc1 | 36 (≈ 118 µM)

Structure (SMILES) | solubility kinetic [µg/mL]
CCCS(=O)(=O)c1cscc1NC(=O)c1c(-c2c(F)cccc2Cl)noc1C | 0.9 (≈ 2.03 µM)
CCCn1c(=N)n(CC(O)COc2ccc(C)cc2)c2ccccc21.Cl (configuration not stated) | > 56.4
O=C(COC(=O)COc1ccc(Cl)cc1)NC1CC1 | > 42.6
O=C(CCc1nnc(-c2ccccc2)o1)NC1CCCCC1 | > 44.9
CC(=O)C(Cc1ccccc1)NC(=O)COc1ccc2c(c1)OCO2 (configuration not stated) | > 51.2
Cc1ccc(OCC(O)CNC(C)c2ccccc2)cc1C.Cl (configuration not stated) | 45.9
CCOc1ccc(NC(=O)CNC(=O)c2ccco2)cc1 | > 43.2
CN(c1ccc(O)cc1)S(=O)(=O)c1ccc2ccccc2c1 | > 47
CCOC(=O)c1cc(C(=O)NC(C)c2ccccc2)c(C)[nH]c1=O (configuration not stated) | 2.7 (≈ 8.22 µM)
Cn1c(COc2ccc(C(=O)O)cc2)nc2ccccc21 | > 42.3
O=C(O)c1ccc(C(=O)Nc2cccc3ccccc23)c(C(=O)O)c1 | > 50.3
CN(c1ccccc1)c1cc(Br)nc(Br)c1 | 0.4 (≈ 1.17 µM)
O=C(CCNC(=O)c1ccccc1Cl)NCC1CCCO1 (configuration not stated) | > 46.6
Cc1ccc(Nc2ncnc(N)n2)cc1 | 29.5 (≈ 147 µM)
COc1ccnc2c1c(=O)n(Cc1ccc(F)cc1)c(=O)n2C | 25.2 (≈ 79.9 µM)
COc1cccc(NC(=O)CN2C(=O)COc3ccc(C)cc32)c1 | 1.9 (≈ 5.82 µM)
O=C1c2ccccc2CN1CCNC(=S)NC1CCCCC1 | > 47.6
Cc1ccc2c(c1)C1C[N+](C)(CC(=O)c3ccccc3)CCC1N2C(=O)c1ccccc1Cl.[Br-] (configuration not stated) | 78
O=C(COC(=O)c1cc(=O)[nH]c2ccccc12)Nc1ccccc1F | 19.7 (≈ 57.9 µM)
CC1CC(C)(C)NC(=S)N1CCC(=O)N1CCc2ccccc21 (configuration not stated) | 14.6 (≈ 44 µM)
CCOC(=O)c1c(C)c2c(=O)[nH]cnc2n1-c1ccccc1 | 2.2 (≈ 7.4 µM)
Nc1nc(F)nc2c1ncn2[C@@H]1O[C@H](CO)[C@@H](O)[C@H]1O | > 42.8
O=C(NNC(=S)Nc1ccccc1C(F)(F)F)c1cccnc1 | > 51
CCOc1ccc(NC(=O)Nc2ccc3c(c2)CCC3)cc1 | < 0.3

Structure (SMILES) | solubility kinetic [µg/mL]
CC(C)N1CC(C(=O)Nc2ccc(Cl)c(Cl)c2)CC1=O (configuration not stated) | > 47.3
COc1cc(OC)cc(C(=O)NCCCCNC(=O)c2cc(OC)cc(OC)c2)c1 | 1.1 (≈ 2.64 µM)
COc1ccccc1Nc1nc(N)nc(CN2CCCCC2)n1 | > 47.2
O=C(COC(=O)COc1ccccc1)NCc1ccc2c(c1)OCO2 | > 51.5
CN(C(=O)CSc1nc2ccc(Cl)cc2[nH]1)C1CCS(=O)(=O)C1 (configuration not stated) | > 56.1
O=C(/C=C/c1ccccc1Cl)Nc1ccccc1 | 0.6 (≈ 2.33 µM)
CCOc1ccccc1C(=O)NCCNC(=O)c1ccccc1OCC | 40.6 (≈ 114 µM)
O=C(NC(=O)c1ccccc1)Nc1ccccc1O | 2.1 (≈ 8.19 µM)
COc1ccc2c(c1)CCC(C)N2C(=O)C(=O)c1c[nH]c2ccccc12 (configuration not stated) | 0.6 (≈ 1.72 µM)
CN(Cc1ccc(F)cc1)C(=O)c1sccc1-c1ccccc1 | 21.4 (≈ 65.8 µM)
COc1ccccc1NC(=O)Nc1ccc2c(c1)nc(C)n2C | 5.7 (≈ 18.4 µM)
Cc1nc(-c2cccc(S(=O)(=O)N3CCCCC3)c2)cs1 | 24.3 (≈ 75.4 µM)
N/C(=N\OC(=O)c1cccs1)c1ccc(Cl)cc1 | 3.5 (≈ 12.5 µM)
CCc1noc(C)c1C(=O)Nc1ccc(C(F)(F)F)cc1 | 7.5 (≈ 25.1 µM)
CCOC(=O)C1CCN(S(=O)(=O)c2ccc(C)c(C)c2)CC1 | 4.5 (≈ 13.8 µM)
CCCN(CCC)Cc1cc(=O)oc2cc3c(cc12)CCC3 | < 0.6
Cc1ccc(OCC(O)CN2CCOCC2)cc1C.Cl (configuration not stated) | > 45.3
O=C(CCCC(=O)c1ccccc1)Nc1ccc(F)cc1 | 4.9 (≈ 17.2 µM)
CC(OC(=O)c1ccco1)C(=O)NCc1ccc2c(c1)OCO2 (configuration not stated) | > 47.6
O=C(O)COc1ccc(/C=N/O)cc1Br | 41 (≈ 150 µM)
CCCOc1ccc(CN2CCOCC2)cc1OC.Cl | > 45.3
CC(=O)N[C@H]1C(O)O[C@H](CO)[C@@H](O)[C@@H]1O (some centres not stated) | > 33.2
CCOC(=O)C1CCCN(C(=S)Nc2ccc(OC)cc2)C1 (configuration not stated) | 46 (≈ 143 µM)
Cc1nc(N2CCC(C(N)=O)CC2)c2c(-c3cccs3)csc2n1 | > 53.8

Structure (SMILES) | solubility kinetic [µg/mL]
Cc1ccc(SCC(=O)N2CCN(S(=O)(=O)c3cccs3)CC2)cc1 | 18.4 (≈ 46.4 µM)
O=C(NCC1CCCCC1)c1cccnc1 | 31.1 (≈ 142 µM)
CC1C(=O)Nc2ccccc2N1C(=O)c1cccc(C(F)(F)F)c1 (configuration not stated) | > 50.1
COc1ccc(CC(C)Nc2ccccc2F)cc1 (configuration not stated) | < 0.6
CCC(=O)c1cn(CCOc2ccccc2OC)c2ccccc12 | 2.2 (≈ 6.8 µM)
CCC1(C)Cc2ccccc2-c2[nH]c(=S)[nH]c(=O)c21 (configuration not stated) | 22.1 (≈ 81.1 µM)
COc1ccc(S(=O)(=O)n2cccc2)c(OC)c1 | 3.9 (≈ 14.6 µM)
Cc1ccc(N=CC2=C(O)CC(c3ccccc3Cl)CC2=O)cc1 (configuration not stated) | < 0.7
O=C(Cn1c(=O)cnc2ccccc21)NC1CCC(O)CC1 (configuration not stated) | > 45.2
Cc1ccc(NC(=O)c2cc3ccccc3cc2O)cc1 | < 0.6
CC(C)CCNC(=O)CCCCn1c(=O)[nH]c2ccsc2c1=O | 47.1 (≈ 140 µM)
Cc1ccnc(NC(=O)c2ccc3[nH]c(=O)c(=O)[nH]c3c2)c1 | 2.2 (≈ 7.43 µM)
Cc1cc(C(=O)Nc2ccc(Br)cc2)cs1 | 0.7 (≈ 2.36 µM)
Cc1ccc2oc(=O)c(/C=C(\O)C(C)(C)C)nc2c1 | 28.3 (≈ 109 µM)
Cc1cccc(OCC(=O)NCC(c2ccco2)N2CCCC2)c1 (configuration not stated) | > 49.3
O=S(=O)(c1ccc(F)cc1)N1CN2CCN(C2)C1 | > 40.7
Cc1ccccc1NC(=O)C(C)N1C(=O)c2ccccc2C1=O (configuration not stated) | > 46.3
Cc1ccc(SCCN2CCN(C)CC2)cc1.Cl | 35.5
COc1cccc(Nc2cc(C)c3ccccc3n2)c1 | 8.7 (≈ 32.9 µM)
CCS(=O)(=O)N1CCN=C1SCc1cccc(F)c1 | > 45.4
O=C(CCOc1ccccc1)Nc1ccc(Br)cc1 | < 0.7
